Test results as given in US12569498B2, “Methods and compositions for the prevention and treatment of ischemia reperfusion injury and infection” (CHILDREN'S NATIONAL MEDICAL CENTER, priority 2019, dated 2026).
“Also recorded” adds a separate entry of the source.

Key:
[1] = system: CD45+ immune cells in the torsed testis; test: Flow cytometry of CD45+ immune cell infiltrate in testis after testicular torsion; format: in vivo, CD1 mice; settings: varenicline 1 grm/kg i.p. 1 hour after onset of torsion; 48 hours after reperfusion; P≤0.0001
Method: (§1) Unilateral testicular torsion was induced in mature male CD1 mice by rotating the right testicle 720 degrees for 2 hours. Treatment with cytisine or varenicline was initiated one hour prior or one hour after the creation of testicular torsion. Testes were harvested 18 hours and 30 days following reperfusion. The acute inflammatory response was quantified with FACS analysis, […], reduced glutathione levels and quantification of the expression of IRI markers. Long term (30 day) outcomes were assessed by histologic evaluation, quantification of the expression of pro-fibrotic genes and measurement of testicular weight.
Mice underwent testicular torsion as previously described (Lysiak 2001). Briefly, mice were anesthetized with isoflurane over a heating pad. […]
Eighteen hours after reperfusion of the testis in the cytisine group and 48 hours after reperfusion in the varenicline group, bilateral testes were harvested, homogenized and digested with digestion solution containing 0.5% FBS, 20 mM HEPES, RPMI Medium, 0.057 U/ml DNase I, 1 mg/ml collagenase b. Cells were washed, counted with a hemocytometer and 1 million then diluted to 1 million cells per mL. […] For each sample 300,000 live cells were counted using BD FACSCalibur (BD Biosciences, San Jose, CA) and analyzed with FlowJo 9.0 software (TreeStar, Ashland, OR).

[2] = system: oxidative stress within the testis; test: Myeloperoxidase activity and reduced glutathione levels in testis after testicular torsion; format: in vivo, CD1 mice; settings: varenicline 1 hour after onset of torsion, vs untreated controls; for reduced glutathione (GSH) levels in testis: 48 hours following reperfusion, P≤0.0742
Method: Mice underwent testicular torsion as previously described (Lysiak 2001). Briefly, mice were anesthetized with isoflurane over a heating pad. The right testis was delivered through a low scrotal incision and rotated counterclockwise 720 degrees to induce ischemia for 2 hours. […] All animals were injected with long-acting buprenorphine (0.1 mg/kg) for long-term pain control prior to being recovered from anesthesia. […] Mice kept for 30 days after surgery were weighed on a weekly basis.
(§2) Cytisine (Sigma-Aldrich, St. Louis, MO) was administered intraperitoneally at a dose of 0.1 μg/gram either 1 hour before torsion or 1 hour after torsion (1 hour prior to detorsion). Varenicline ([…]) was administered as an intraperitoneal injection one hour after the onset of torsion and then continued every 12 hours for a total of 4 doses.
Tissues were harvested and stored at −80° C. until use. Glutathione reductase activity was measured by use of glutathione reductase assay Kit (Sigma-Aldrich, St. Louis, MO). Testis tissue was homogenized in 5% sulfosalicylic Acid (SSA) solution. Samples were then centrifuged and supernatant was reserved. Supernatants were added to a reaction mixture containing 95 mM potassium phosphate buffer, pH 7.0, 0.95 mM EDTA, 0.038 mg/mL NADPH, 0.031 mg/mL DTNB, 0.115 units/mL glutathione reductase, and 0.24% SSA. Absorbance at 412 nm was recorded. Glutathione results were expressed as nm GSH per mL sample.
Following an ischemic event, the initial inflammatory response is characterized by an increase in oxidative stress and production of reactive oxygen species. In order to determine the effect of cytisine treatment on the level of reactive oxygen species (ROS) following testicular torsion, testicular levels of myeloperoxidase (MPO), a marker of neutrophil activation, and reduced glutathione (GSH) levels (an indirect measure of oxidative stress within the testis) were measured.

[3] = Testis weight vs contralateral testis 30 days after torsion (testicular atrophy); format: in vivo, CD1 mice; settings: drug given an hour after the onset of torsion; 30 days after reperfusion; vs untreated
Method: as §1
Mice underwent testicular torsion as previously described (Lysiak 2001). Briefly, mice were anesthetized with isoflurane over a heating pad. The right testis was delivered through a low scrotal incision and rotated counterclockwise 720 degrees to induce ischemia for 2 hours. […] All animals were injected with long-acting buprenorphine (0.1 mg/kg) for long-term pain control prior to being recovered from anesthesia. Mice were euthanized either 18 hours or 30 days following torsion. Mice kept for 30 days after surgery were weighed on a weekly basis.
as §2
The degree of testicular atrophy was determined by comparing the weight of the torsed testis to the contralateral control testis 30 days after reperfusion.

[4] = system: IRI markers and pro-fibrotic genes in kidney after CFT073 uropathogenic Escherichia coli pyelonephritis; test: Quantitative PCR of kidney after acute pyelonephritis (IRI markers, pro-fibrotic genes); format: in vivo, C3H/HeOuJ mice
Method: Methods: Using an established murine model, pyelonephritis was induced by inoculating the bladder of C3H/HeOuJ mice with a uropathogenic E. coli. Five days following inoculation, half of the animals were treated with 5 days of ceftriaxone and half were treated with 5 days of ceftriaxone plus varenicline in the initial 48 hours. Histology and the expression of ischemia reperfusion injury markers and pro-fibrotic genes were evaluated at 14 and 30 days following the initial infection.
To initiate pyelonephritis, the bladder was catheterized with a 24-gauge angiocatheter and a total volume of 100 μL of a phosphate-buffered saline containing […] colony forming units (CFU) of CFT073 uropathogenic Escherichia coli (UPEC) was then instilled.
[…] Real-time PCR was performed using QuantStudio 7 Flex (Applied Biosystems, Foster City, CA) with Software Quantstudio Real-Time PCR Software (Thermo Fisher Scientific, Waltham, MA) and TaqMan Gene Expression Assays (Applied Biosystems, Foster City, CA). Standard TaqMan primers were used for Complement 1 q B chain (C1qb, Mm01179619_m1), Lipocalin 2 (Lcn2, Mm01324470_m1), Serpina (Mm04213318_m1), Cathepsin S (Ctss, Mm01255859_m1), Vascular cell adhesion molecule 1 (Vcam1, Mm01320970_m1), Interleukin 1 beta (IL-1β, Mm00434228_m1), and Nitric oxide synthase 2 (Nos2, Mm00440502_m1) as short-term IRI markers and Collagen 1 (Col1, Mm00801666_g1), Collagen 3 (Col3, Mm01254476_m1), Vimentin (Vim, Mm01333430_m1), and Smooth muscle actin (Acta, Mm00725412_s1) to evaluate long-term fibrosis.

[5] = cited from earlier work
α7nAChR = α7nAChR (Homo sapiens, UniProt P36544); settings: peak concentrations in smokers / levels with therapeutic dosing in humans (Campling 2013); cited from earlier work
[6] = adolescents aged 12-16, of 75 patients (Faessel 2009)

Sequence of α7nAChR (P36544 23-502): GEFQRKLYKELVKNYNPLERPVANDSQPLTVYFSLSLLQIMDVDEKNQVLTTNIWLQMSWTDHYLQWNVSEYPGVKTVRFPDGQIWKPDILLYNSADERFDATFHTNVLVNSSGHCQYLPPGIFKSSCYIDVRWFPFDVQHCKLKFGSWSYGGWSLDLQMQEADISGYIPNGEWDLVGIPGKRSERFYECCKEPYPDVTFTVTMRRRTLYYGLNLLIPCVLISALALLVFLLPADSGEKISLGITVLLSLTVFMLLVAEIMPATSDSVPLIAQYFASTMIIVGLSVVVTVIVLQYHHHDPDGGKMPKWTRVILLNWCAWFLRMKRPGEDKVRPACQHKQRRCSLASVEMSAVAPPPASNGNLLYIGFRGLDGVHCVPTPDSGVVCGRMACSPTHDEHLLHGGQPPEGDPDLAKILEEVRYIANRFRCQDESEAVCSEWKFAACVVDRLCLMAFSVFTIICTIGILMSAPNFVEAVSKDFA

## c1cnc2cc3c(cc2n1)C1CNCC3C1 [varenicline, 7,8,9, 10-tetrahydro-6, 10-methano-6H-pyrazino[2,3-h][3]benzazepine]
[1]
  acute immune cell (leukocyte) infiltrate in testis: decreased leukocyte infiltrate; also recorded: reduction in the acute immune cell infiltrate
[2]
  reduced glutathione (GSH) levels in testis: increased levels of reduced glutathione (GSH)
[2]; listed as Varenicline
  reduced glutathione (GSH) levels in testis: preserved reduced glutathione levels
[2]; P≤0.0013
  myeloperoxidase (MPO) activity in testis: decreased levels of MPO activity; also recorded: significantly decreased
[3]
  testicular atrophy (weight of torsed testis vs contralateral control testis): limited long term testicular atrophy; also recorded: preserved testicular weight
[4]; 14 days after inoculation, 5 days after completion of antibiotics, varenicline 1 mg/kg i.p. twice daily first 48 hours plus ceftriaxone vs ceftriaxone alone, difference not statistically significant
  expression of established mediators (markers) of renal ischemia reperfusion injury: decreased expression of IRI markers
[4]; 30 days following inoculation, 21 days after completion of antibiotics, varenicline plus ceftriaxone vs ceftriaxone alone
  expression of pro-fibrotic genes (Col1, Col3, acta, vimentin) in kidney: trend towards a decreased expression of pro-fibrotic genes; also recorded: long-term decrease; also recorded: decrease in expression of genes responsible for renal fibrosis
[4]; kidneys at 30 days, p-value of 0.03
  expression of vimentin in kidney: Decrease in expression of vimentin
[5]; adolescents aged 12-16 (Faessel 2009)
  incidence of neurocognitive side effects: 3 out of 75
[5]; [6]
  abnormal dreams: 2 patients
  transient mild anger: 1 patient
α7nAChR
  activation of α7nAChR at clinically reached concentrations: α7nAChR agonist at concentrations found with therapeutic dosing in humans; also recorded: strong α4β2nAChR and α7nAChR agonist
